Reference: PubChem BioAssay AID1963856 (Molecular Pharmacology Branch, DTP, NCI, 2024)

Test system: LG0567-F671-PDC KRAS tumor spheroid viability
Experiment: Anticancer human tumor LG0567-F671-PDC patient-derived lung adenocarcinoma cell line growth inhibition [KRAS2]
Details: spheroids with HUVEC and MSC; for IC50: curve of first compound; for viability, T/C: stronger effect = lower value
Description: Multicellular complex tumor spheroid response to RAS pathway inhibitors in combination with a targeted agents in patient-derived cell lines with oncogenic KRAS variants from multiple cancer types
A high-throughput screen of multi-cell type tumor spheroids was designed to identify active combinations of targeted small molecules and KRAS pathway inhibitors. Complex spheroids include a stromal component modeled by human endothelial cells (HUVEC) and fibroblasts modeled by human mesenchymal stem cells (MSCs). The concentration ranges selected for each drug and investigational agent were based upon clinically achievable concentrations if the clinical Cmax of the agent was known.
Compounds. The drugs and investigational agents: BI-3406 (NSC825286), BAY-293 (NSC824723), batoprotafib (TNO155; NSC825523), sotorasib (AMG 510; NSC818433), MRTX1257 (NSC819558), elimusertib (BAY 1895344; NSC800525), molibresib (GSK525762; NSC774829), temuterkib (LY3214996; NSC803410), venetoclax (NSC766270), alisertib (NSC759677), olaparib (NSC753686), talazoparib (NSC767125), erdafitinib (NSC781556), ipatasertib (NSC767898), cabozantinib (NSC761068), nintedanib (NSC756659), abemaciclib (NSC768073), docetaxel (NSC628503), trametinib (NSC758246), and sapanisertib (NSC764658) were obtained from the National Cancer Institute (NCI) Developmental Therapeutics Program Chemical Repository. The FDA-approved anticancer drug set is available from the Developmental Therapeutics Program. […] The stock solutions were prepared in dimethyl sulfoxide (DMSO, Sigma-Aldrich, St. Louis, MO, cat. D2650) at 800-fold the tested concentration and stored at -70 degrees C prior to their use. All drugs and investigational agents were tested over a range starting from a high concentration at or near the clinical Cmax and decreasing in half-log increments. If the clinical Cmax for an agent had not been determined, the highest concentration tested was 10 microM.
Cell Culture. All cells were maintained in an incubator at 37 degrees C and 5% CO2 with 95% humidity. The PDC lines were cultured according to standard operating procedures established by the NCI PDMR (https://pdmr.cancer.gov/sops/default.htm). Briefly, all PDCs were thawed and cultured in Matrigel-coated flasks prepared with a working solution of 1X Ham's F-12 nutrient mix, without supplementation (Invitrogen, Waltham, MA, cat. 11765054), 100 U/mL penicillin-streptomycin (Invitrogen, cat. 15140122), and 2.5% Matrigel (Corning Inc., Corning, NY, cat. 354248) for the first three passages. All PDCs were cultured in complete DMEM/F-12 media containing advanced DMEM/F-12 (Invitrogen, cat. 12634028), 4.9% defined fetal bovine serum, heat inactivated (HyClone Laboratories Inc., Logan, UT, cat. SH30070.03HI), 389 ng/mL hydrocortisone (Sigma-Aldrich, cat. H4001), 9.7 ng/mL human EGF recombinant protein (Invitrogen, cat. PHG0313), 23.4 microg/mL adenine (Sigma-Aldrich, cat. A2786), 97.3 U/mL penicillin-streptomycin (Invitrogen, cat. 15140122), 1.9 mM L-glutamine (Invitrogen, cat. 25030081), and 9.7 microM Y-27632 dihydrochloride (Tocris Bioscience, Bristol, United Kingdom, cat. 1254). The PDCs were cultured in complete DMEM/F12 media without 9.7 microM Y-27632 dihydrochloride for at least two passages prior to the screen. The established cell line HOP-62 was cultured in RPMI 1640 medium, HEPES (Invitrogen, cat. 22400105) with 10% defined fetal bovine serum (HyClone Laboratories Inc., cat. SH30070.03) and 2 mM L-glutamine (Invitrogen, cat. 25030081). The pooled donor HUVEC were cultured in endothelial cell growth medium 2 (PromoCell, Heidelberg, Germany, cat. C-22011) and the hMSC were cultured in mesenchymal stem cell growth medium 2 (PromoCell, cat. C-28009). For all experiments, HUVEC and hMSC were used at passages </=5, while the malignant cell lines were used at passages </=15. […]

[1] = second compound 0.1 µM, first compound 0.0316 µM
[2] = second compound 0.1 µM, first compound 0.1 µM
[3] = second compound 0.1 µM, first compound 0.316 µM
[4] = second compound 0.1 µM, first compound 1 µM
[5] = second compound 0.1 µM, first compound 3.16 µM
[6] = second compound 0.1 µM, first compound 10 µM
[7] = second compound 0.316 µM, first compound 0.0316 µM
[8] = second compound 0.316 µM, first compound 0.1 µM
[9] = second compound 0.316 µM, first compound 0.316 µM
[10] = second compound 0.316 µM, first compound 1 µM
[11] = second compound 0.316 µM, first compound 3.16 µM
[12] = second compound 0.316 µM, first compound 10 µM
[13] = second compound 1 µM, first compound 0.0316 µM
[14] = second compound 1 µM, first compound 0.1 µM
[15] = second compound 1 µM, first compound 0.316 µM
[16] = second compound 1 µM, first compound 1 µM
[17] = second compound 1 µM, first compound 3.16 µM
[18] = second compound 1 µM, first compound 10 µM
[19] = second compound 3.16 µM, first compound 0.0316 µM
[20] = second compound 3.16 µM, first compound 0.1 µM
[21] = second compound 3.16 µM, first compound 0.316 µM
[22] = second compound 3.16 µM, first compound 1 µM
[23] = second compound 3.16 µM, first compound 3.16 µM
[24] = second compound 3.16 µM, first compound 10 µM
[25] = second compound 10 µM, first compound 0.0316 µM
[26] = second compound 10 µM, first compound 0.1 µM
[27] = second compound 10 µM, first compound 0.316 µM
[28] = second compound 10 µM, first compound 1 µM
[29] = second compound 10 µM, first compound 3.16 µM
[30] = second compound 10 µM, first compound 10 µM
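Further: drug exposure lasted seven days after spheroids formed for three days.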
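Wherever viability, T/C is given: 100% = DMSO vehicle control viability.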

Row | SMILES | IC50 (second compound 0.1 µM) [nM] | IC50 (second compound 0.316 µM) [nM] | IC50 (second compound 1 µM) [nM] | IC50 (second compound 3.16 µM) [nM] | IC50 (second compound 10 µM) [nM] | viability, T/C [1] [%] | viability, T/C [2] [%] | viability, T/C [3] [%] | viability, T/C [4] [%] | viability, T/C [5] [%] | viability, T/C [6] [%] | viability, T/C [7] [%] | viability, T/C [8] [%] | viability, T/C [9] [%] | viability, T/C [10] [%] | viability, T/C [11] [%] | viability, T/C [12] [%] | viability, T/C [13] [%] | viability, T/C [14] [%] | viability, T/C [15] [%] | other results
1 | COc1cc(Nc2ncc3c(n2)-c2ccc(Cl)cc2C(c2c(F)cccc2OC)=NC3)ccc1C(=O)O + CC1OCC2(CCN(c3cnc(Sc4ccnc(N)c4Cl)c(N)n3)CC2)C1N | 204 | < 31.6 | < 31.6 | < 31.6 | < 31.6 | 58.7 | 49.6 | 45.7 | 47.1 | 40.3 | 31.7 | 25.7 | 26 | 21.7 | 22.8 | 23.8 | 18.8 | 17.6 | 19.2 | 18.1 | viability, T/C [16]: 18.5%; viability, T/C [17]: 17.2%; viability, T/C [18]: 14.9%; viability, T/C [19]: 12.1%; viability, T/C [20]: 8.31%; viability, T/C [21]: 8.93%; viability, T/C [22]: 8.9%; viability, T/C [23]: 4.29%; viability, T/C [24]: 5.34%; viability, T/C [25]: 4.83%; viability, T/C [26]: 3.93%; viability, T/C [27]: 3.68%; viability, T/C [28]: 3.68%; viability, T/C [29]: 3.65%; viability, T/C [30]: 4.21%
2 | COC(=O)c1ccc2c(C(=Nc3ccc(N(C)C(=O)CN4CCN(C)CC4)cc3)c3ccccc3)c(O)[nH]c2c1 + CNCc1ccccc1-c1csc(C(C)Nc2nc(C)nc3cc(OC)c(OC)cc23)c1 | > 10000 | < 31.6 | 426 | < 31.6 | < 31.6 | 66.3 | 57.4 | 57.2 | 59.2 | 65.4 | 56.4 | 50.6 | 45.5 | 39.7 | 53.6 | 29.4 | 41.7 | 52.5 | 48.5 | 52.8 | viability, T/C [16]: 46.9%; viability, T/C [17]: 2.38%; viability, T/C [18]: 3.49%; viability, T/C [19]: 1.05%; viability, T/C [20]: 2.43%; viability, T/C [21]: 0.68%; viability, T/C [22]: 0.71%; viability, T/C [23]: 0.64%; viability, T/C [24]: 0.52%; viability, T/C [25]: 1.55%; viability, T/C [26]: 1.48%; viability, T/C [27]: 2.71%; viability, T/C [28]: 2.27%; viability, T/C [29]: 0.69%; viability, T/C [30]: 0.4%
3 | COc1cc2nccc(Oc3ccc(NC(=O)C4(C(=O)Nc5ccc(F)cc5)CC4)cc3)c2cc1OC + COc1cc2nc(C)nc(NC(C)c3cc(N)cc(C(F)(F)F)c3)c2cc1OC1CCOC1 | > 10000 | < 31.6 | < 31.6 | 204 | 175 | 78.6 | 71.5 | 56.5 | 32.8 | 101 | 95.6 | 61.5 | 58.6 | 45.4 | 25.6 | 87.3 | 74 | 43.8 | 53 | 42.7 | viability, T/C [16]: 20.9%; viability, T/C [17]: 79.8%; viability, T/C [18]: 53.3%; viability, T/C [19]: 63.7%; viability, T/C [20]: 62%; viability, T/C [21]: 42.1%; viability, T/C [22]: 24.8%; viability, T/C [23]: 9.35%; viability, T/C [24]: 72.6%; viability, T/C [25]: 71.7%; viability, T/C [26]: 54.2%; viability, T/C [27]: 49.2%; viability, T/C [28]: 37.4%; viability, T/C [29]: 1.24%; viability, T/C [30]: 78.7%
4 | CC1(C)CCC(CN2CCN(c3ccc(C(=O)NS(=O)(=O)c4ccc(NCC5CCOCC5)c([N+](=O)[O-])c4)c(Oc4cnc5[nH]ccc5c4)c3)CC2)=C(c2ccc(Cl)cc2)C1 + COc1cc2nc(C)nc(NC(C)c3cc(N)cc(C(F)(F)F)c3)c2cc1OC1CCOC1 | 1510 | 1360 | 1360 | 1220 | 640 | 73.5 | 67.3 | 59 | 68.8 | 18.8 | 11.7 | 67.5 | 66.5 | 61.2 | 59.6 | 25 | 7.5 | 69 | 73.3 | 72.6 | viability, T/C [16]: 58.7%; viability, T/C [17]: 24.1%; viability, T/C [18]: 3.67%; viability, T/C [19]: 70.2%; viability, T/C [20]: 70.7%; viability, T/C [21]: 62.8%; viability, T/C [22]: 57.8%; viability, T/C [23]: 15.6%; viability, T/C [24]: 5.87%; viability, T/C [25]: 81.3%; viability, T/C [26]: 76.5%; viability, T/C [27]: 63%; viability, T/C [28]: 42.7%; viability, T/C [29]: 14.1%; viability, T/C [30]: 1.67%
